Source: patent US10995068B2, “Synthetic sphingolipid-like molecules, drugs, methods of their synthesis and methods of treatment” (The Regents of the University of California, priority 2015, dated 2021)

Tested on: K-RasG12D expressing cells
Assay: Macropinosome fusion with lysosomes
Type: cell-based
Conditions: dextran
Source text: In cells with activated Ras, macropinocytosis might also confer resistance to nutrient transporter down-regulation. However, PI(3,5)P2 is also required for macropinosome degradation. […] Macropinosomes that fail to fuse with lysosomes would not be able to supply nutrients, such as amino acids. Thus, by disrupting PIKfyve localization, sphingolipid-like compounds limit access to lysosome-derived nutrients at the same time it down-regulates transporters for amino acids and glucose.
Light Microscopy: Brightfield and epifluorescence microscopy were conducted using a Nikon TE2000-S fluorescence microscope; confocal microscopy was performed on a Zeiss LSM780 confocal microscope or Nikon Eclipse Ti spinning disk confocal microscope. […] Co-localization was determined using JACoP plugin in ImageJ software. Macropinocytosis was measured after 16 h incubation in serum-free DMEM. p53−/−; LSL-K-RasG12D MEFs before (LSL) or after (KRasG12D) introduction of Cre were serum starved for 16 h and then treated with macropinocytosis inhibitor 5-(N-ethyl-N-isopropyl) amiloride (EIPA, 75 μM) for 1 h or SH-BC-893 for 6 h. Oregon Green dextran (Life Technologies, cat #D7173) (1 mg/mL) and Lysotracker Red (Life Technologies, cat #L-7525) (1:2,000 dilution) were added for 30 min and live cells were evaluated on the spinning disc confocal microscope. […]

## CCCCCCCCc1ccc([C@H]2CCN[C@@H]2CO)cc1.Cl [Compound 5, (2S,3R)-2-(hydroxymethyl)-3-(4-octylphenyl)Pyrrolidinium chloride]
  macropinosome fusion with lysosomes: dramatically reduced macropinosome fusion with lysosomes
